Source: patent US9226503B2, “Composition and method for attraction of emerald ash borer Agrilus planipennis fairmaire (coleoptera: buprestidae)” (Her Majesty the Queen in Right of Canada, as represented by …, priority 2011, dated 2016)

Experiments:
A. planipennis [1] = experiment: Field trapping 2011 experiment 2: (3Z)-lactone, (3Z)-hexenol and trap height factorial, dark green traps; assay type: in vivo, Agrilus planipennis; settings: 2×2×2 factorial, lactone 3 mg/lure
Experimental: Two trapping experiments were conducted in green and white ash plantations (F. pennsylvanica Marsch and F. americana L.) located 40-60 km southeast of Sarnia, Ontario in 2011. Trees were 20-30 yr old, 5-8 m tall, 12-18 cm in diameter, and spaced 2-3 m apart within and between rows. Five sites were used in total: four were green ash and the fifth was a white ash plantation. Trees at four of the sites generally appeared healthy with few or no signs of decline and only a few with obvious signs and symptoms of infestation by A. planipennis. At the fifth site, obvious crown decline and signs of infestation were apparent on about one-quarter of trees.
Green prism sticky traps (0.30 cm×35.00 cm×58.75 cm) (Synergy Semiochemicals Corp., Burnaby, BC) were used in all field trials, deployed using modified umbrella rig spreaders (Zing Products, Westport, Mass.). Traps were spaced 20-25 m apart and lure treatments replicated in randomized complete block designs. Traps were deployed either using ropes tied between two trees or using a single line over a canopy branch, as described further below for each specific experimental objective. Traps were typically checked every 2 wk and A. planipennis were collected, counted, and sexed.
Experiment 2 was a 2×2×2 factorial experiment designed to test the effects of (3Z)-lactone, (3Z)-hexenol, trap height, and their interactions on numbers of A. planipennis captured on sticky, dark green (540-nm wavelength) (Francese et al 2010a) prism traps. Traps were baited with either (3Z)-lactone, (3Z)-hexenol, (3Z)-lactone+(3Z)-hexenol, or neither compound (unbaited control) and all treatments were deployed both below the canopy or in the mid-canopy. Traps placed below the canopy were suspended from ropes tied between two trees so the trap was 1-1.5 m from either tree and the top of the trap was 1.5-2 m above the ground. Traps in the canopy were deployed from a single line looped over a mid-canopy branch such that traps were 1-1.5 m from the main stem and their tops were 6 m above ground. (3Z)-Lactone was loaded onto rubber septa lures at a dosage of 3 mg/lure. Release rates of the (3Z)-lactone and (3Z)-hexenol were 60-70 μg/day and 50-100 mg/day, respectively at 25° C. Traps were in the field from 8 June-5 August, with one block at one site (Nauvoo Ranch), 5 blocks at a second site (LaSalle, the one white ash plantation), and 4 blocks at a third site (Brook Line). The 3 mg (3Z)-lactone lures were estimated to maintain adequate release rates for a minimum of three weeks and thus were replaced after three weeks; (3Z)-hexenol lures were not replaced during the experiment.
Numbers of A. planipennis captured in the trapping experiments were subjected to ANOVA separately for males and females. […]

A. planipennis [2] = settings: background, cited studies; cited from earlier work
A. planipennis [3] = experiment: Two-choice Y-tube olfactometer assay; assay type: in vivo, Agrilus planipennis; settings: (3Z)-hexenol 5 μg
Experimental: A Y-tube olfactometer (Analytical Research Systems Inc, Gainsville, Fla.) was used to test for attraction of A. planipennis to lactone isomers and host volatiles. […] Each arm was connected to a cylinder that contained the stimulus. Charcoal filtered air was passed into each arm at a flow rate of 1.2 L/min. Treatments included the pheromone alone: (3Z)-lactone (10 μg); (3E)-lactone (10 μg); and 60:40 (3E):(3Z)-lactone (10 μg). Next, we tested bark sesquiterpenes and a green leaf volatile alone: Phoebe oil (25 μg and 2.5 μg) and (3Z)-hexenol (5 μg). We then tested the pheromone combined with bark sesquiterpenes: (3Z)-lactone (10 μg)+Phoebe oil (at both 25 μg and 2.5 μg); (3E)-lactone (10 μg)+Phoebe oil (at both 25 μg and 2.5 μg). Finally, we tested the pheromone combined with the green leaf volatile: (3Z)-lactone (10 μg)+(3Z)-hexenol (5 μg); and (3E)-lactone (10 μg)+(3Z)-hexenol (5 μg). Each stimulus (l μl for single compound treatments and a total of 2 μl for two-compound treatments) was diluted in hexane, placed on a strip of filter paper and given one minute for the solvent to evaporate before being placed in the olfactometer. A second filter paper, treated with the equivalent volume of solvent was placed in the other arm of the olfactometer to serve as the control. The apparatus was rinsed with acetone after each treatment, and the arm attached to the test stimulus was randomized between replicates.
For each treatment, we tested increasing numbers of adults until we obtained a minimum of 12 beetles responding to the stimuli (either positively or negatively). To obtain this minimum, we tested 15-54 beetles per treatment. For each trial, a single A. planipennis (mature virgin male or female, >10 days old) was given ten minutes to choose between the two stimuli; adults were used only once in the bioassay. […] A chi-square test was conducted for each independent trial.

A. planipennis [4] = settings: Silk et al. 2009; cited from earlier work
A. planipennis antennae = experiment: EAG dose-response study; design: species or system Agrilus planipennis; settings: 1 μg applied dose; n=80, 15 antennal preparations
Description: EAG analyses were made by methods and equipment generally described by Cossé & and Bartelt (2000). EAG connections were made by inserting a glass-pipette silver-grounding electrode into the back of an excised beetle head. A second glass-pipette silver-recording probe was placed in contact with the distal end of one antenna. Both pipettes were filled with Beadle-Ephrussi (Ephrussi and Beadle 1936) saline.
For the EAG-dose-response study, (3Z)- and (3E)-lactones were purified (99.9% purity by GC/MS) by high performance liquid chromatography (HPLC) using a Waters 515 pump, a Waters R401 refractive index detector, and a 25 cm by 0.46 cm i.d. silica column (Adsorbosphere Silica 5 μm, Alltech, Deerfield, Ill.), treated with silver nitrate as described by Heath and Sonnett (1980). Solvent was 8% ether in hexane. Ten micro liters of serially diluted solutions (methylene chloride) of synthetic (3Z)-lactone and (3E)-lactone were applied to filter paper strips (0.5 cm×5 cm, Whatman no. 1). The filter paper strips were placed in 14-cm-long Pasteur pipettes, hereafter referred to as stimulus cartridges, after 5 min at room temperature. Stimulus doses tested were 0.01, 0.1, 1, 10, and 100 μg. Male and female antennae were exposed to single 0.2s puffs of odor-bearing air at 5 ml/s by placing the tip of an stimulus cartridge into a hole of a glass tube (0.7 cm ID×20 cm), 10 cm from the outlet and 11 cm away from the antennal preparation. Airflow through the glass tube was humidified and set at 10 ml/s. Puff duration and airflow speeds were maintained by a stimulus flow controller (SFC-2, Syntech, Hilversum, The Netherlands). Stimuli cartridges were selected in random order, beginning with the lowest dosages and working upward to the highest dosages. Each puffed dosage was preceded and followed by a puff from a solvent blank cartridge (filter paper plus solvent). To compensate for possible deterioration of the antennal preparation, a standard control compound, geranyl acetone (1 μg dose) preceded dosages of stimuli compound. EAG amplitudes were normalized according to the responses to geranyl acetone by dividing the amplitude of the EAG generated by the test compounds by that of geranyl acetone. Dose-response series were replicated, using different antennal preparation for each replication, and the EAG responses were expressed as a percentage of the EAG responses to geranyl acetone. Each antennal preparation was tested with freshly prepared sets of stimuli cartridges. Male and female EAG responses were submitted to analysis of variance (ANOVA) using Statistica for Windows software (StatSoft Inc. Tulsa, Okla.)).

[5] = females, low dose of Phoebe oil

In the case of `CC/C=C\CCO` [(3Z)-hexenol], the “mean capture of males per trap, effect of presence of the lure component” value (A. planipennis [1]) is listed as “significantly and positively affected”, the “mean catch of females, effect of the lure component” value (A. planipennis [1]) is listed as “not” and the “attractiveness to A. planipennis (literature)” value (A. planipennis [2]) is listed as “highly antennally active and attractive to males”. For the same compound, the “attraction of females in Y-tube olfactometer vs hexane control” value (A. planipennis [3]; [5]) was “slightly attracted”, the “females responded in Y-tube olfactometer” value (A. planipennis [3]; [5]) was 75% and the “attraction of males in Y-tube olfactometer vs hexane control” value (A. planipennis [3]; males, lactone 10 μg, chi-square test) was “highly attracted”.

For `CCCCCCCCCCCCCCCCC(C)CCCCCCCC` (centres unmarked) [9-methylpentacosane], the “copulatory activity in males upon antennal contact (literature)” value (A. planipennis [4]) is listed as “stimulates full copulatory activity in males”.

With `CC(=O)CC/C=C(\C)CCC=C(C)C` [geranyl acetone, reference compound] the “mean EAG response of antennae to standard (±SD)” value (A. planipennis antennae) was −0.06±0.03 mV.
